Among the data in patent US9283222B2 (priority 2006, dated 2016) are Ki values, retold here.

Molecules are shown by their SMILES.

In this assay the target is Recombinant Human Poly(ADP-Ribose) Polymerase (PARP), PARP-1 (Homo sapiens (Human), UniProt P09874). As to conditions: read-out: PARP-1 (Ki); Table 1; text calls the values EC50s.
Chain of Recombinant Human Poly(ADP-Ribose) Polymerase (PARP), PARP-1 (P09874 whole entry): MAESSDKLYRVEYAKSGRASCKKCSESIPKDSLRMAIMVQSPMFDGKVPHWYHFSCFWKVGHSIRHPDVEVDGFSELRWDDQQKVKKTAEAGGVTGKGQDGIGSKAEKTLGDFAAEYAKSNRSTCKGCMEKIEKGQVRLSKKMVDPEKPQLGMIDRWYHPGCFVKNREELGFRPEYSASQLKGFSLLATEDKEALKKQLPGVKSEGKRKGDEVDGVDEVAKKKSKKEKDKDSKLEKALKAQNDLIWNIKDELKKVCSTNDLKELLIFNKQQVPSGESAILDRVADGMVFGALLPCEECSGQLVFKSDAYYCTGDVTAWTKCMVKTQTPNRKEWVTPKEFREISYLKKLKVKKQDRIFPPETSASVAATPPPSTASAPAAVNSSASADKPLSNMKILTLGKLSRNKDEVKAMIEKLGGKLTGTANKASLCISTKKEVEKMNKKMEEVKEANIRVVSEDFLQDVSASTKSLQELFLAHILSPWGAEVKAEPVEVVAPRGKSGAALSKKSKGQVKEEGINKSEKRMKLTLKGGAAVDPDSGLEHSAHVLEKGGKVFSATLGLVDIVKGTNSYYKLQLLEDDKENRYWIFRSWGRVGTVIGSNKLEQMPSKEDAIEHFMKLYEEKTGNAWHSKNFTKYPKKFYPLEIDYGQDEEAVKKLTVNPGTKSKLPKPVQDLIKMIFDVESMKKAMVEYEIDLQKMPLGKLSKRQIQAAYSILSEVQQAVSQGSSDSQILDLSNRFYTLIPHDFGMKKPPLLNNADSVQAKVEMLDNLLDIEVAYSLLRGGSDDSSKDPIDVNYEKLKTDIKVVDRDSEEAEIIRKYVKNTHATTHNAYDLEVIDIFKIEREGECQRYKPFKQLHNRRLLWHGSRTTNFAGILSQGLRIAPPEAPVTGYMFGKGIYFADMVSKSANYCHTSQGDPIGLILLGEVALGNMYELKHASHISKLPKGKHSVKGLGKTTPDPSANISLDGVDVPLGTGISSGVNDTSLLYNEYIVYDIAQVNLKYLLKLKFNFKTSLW
Usually Ki stands for a measure of affinity in units of concentration, obtained from inhibition or displacement. Regarding `COc1ccc(OC)c(CCNC(=O)c2cccc(Cc3n[nH]c(=O)c4c3CCCC4)c2)c1` [Example 404, N-(2-(2,5-dimethoxyphenyl)ethyl)-3-((4-oxo-3,4,5,6,7,8-hexahydrophthalazin-1-yl)methyl)benzamide], the Ki stood at 55 nM. With `COc1ccc(CCNC(=O)c2cccc(Cc3n[nH]c(=O)c4c3CCCC4)c2)cc1OC` [Example 405, N-(2-(3,4-dimethoxyphenyl)ethyl)-3-((4-oxo-3,4,5,6,7,8-hexahydrophthalazin-1-yl)methyl)benzamide], the Ki came out at 19 nM. The figure for `COc1cc(CCNC(=O)c2cccc(Cc3n[nH]c(=O)c4c3CCCC4)c2)cc(OC)c1` [Example 406, N-(2-(3,5-dimethoxyphenyl)ethyl)-3-((4-oxo-3,4,5,6,7,8-hexahydrophthalazin-1-yl)methyl)benzamide] is 42 nM.

Take `O=C(NCCc1ccc2c(c1)OCO2)c1cccc(Cc2n[nH]c(=O)c3c2CCCC3)c1` [Example 407, N-(2-(1,3-benzodioxol-5-yl)ethyl)-3-((4-oxo-3,4,5,6,7,8-hexahydrophthalazin-1-yl)methyl)benzamide]: the Ki was determined as 22 nM. As for `CC(c1ccc(F)c(N2CCCC2=O)c1)c1n[nH]c(=O)c2c1CCCC2` (stereo not drawn) [Example 413, 4-(1-(4-fluoro-3-(2-oxopyrrolidin-1-yl)phenyl)ethyl)-5,6,7,8-tetrahydrophthalazin-1(2H)-one], the figure is 18 nM; as for `O=c1[nH]nc(Cc2ccc(F)c(Br)c2)c2ncccc12` [Example 415], 3200 nM.

Regarding `CCN(CCN(C)C)C(=O)c1cccc(Cc2n[nH]c(=O)c3c2CCCC3)c1` [Example 418, N-(2-(dimethylamino)ethyl)-N-ethyl-3-((4-oxo-3,4,5,6,7,8-hexahydrophthalazin-1-yl)methyl)benzamide], the Ki turned out to be 34 nM. Turning to `CCN(CC)CCN(C)C(=O)c1cccc(Cc2n[nH]c(=O)c3c2CCCC3)c1` [Example 419, N-(2-(diethylamino)ethyl)-N-methyl-3-((4-oxo-3,4,5,6,7,8-hexahydrophthalazin-1-yl)methyl)benzamide], the Ki worked out at 16 nM. The figure for `CCN(Cc1ccccc1)C(=O)c1cccc(Cc2n[nH]c(=O)c3c2CCCC3)c1` [Example 420, N-benzyl-N-ethyl-3-((4-oxo-3,4,5,6,7,8-hexahydrophthalazin-1-yl)methyl)benzamide] is 21 nM; for `CC(C)N(Cc1ccccc1)C(=O)c1cccc(Cc2n[nH]c(=O)c3c2CCCC3)c1` [Example 421, N-benzyl-N-isopropyl-3-((4-oxo-3,4,5,6,7,8-hexahydrophthalazin-1-yl)methyl)benzamide] it is 68 nM; for `CCCCN(Cc1ccccc1)C(=O)c1cccc(Cc2n[nH]c(=O)c3c2CCCC3)c1` [Example 422, N-benzyl-N-butyl-3-((4-oxo-3,4,5,6,7,8-hexahydrophthalazin-1-yl)methyl)benzamide] it is 105 nM. On to `O=C(c1cccc(Cc2n[nH]c(=O)c3c2CCCC3)c1)N(Cc1ccccc1)Cc1ccccc1` [Example 423, N,N-dibenzyl-3-((4-oxo-3,4,5,6,7,8-hexahydrophthalazin-1-yl)methyl)benzamide], for which the Ki was 120 nM. On to `O=C(c1cccc(Cc2n[nH]c(=O)c3c2CCCC3)c1)N(CCO)Cc1ccccc1` [Example 424, N-benzyl-N-(2-hydroxyethyl)-3-((4-oxo-3,4,5,6,7,8-hexahydrophthalazin-1-yl)methyl)benzamide], for which the Ki is 31 nM. As for `CN(CCc1ccccn1)C(=O)c1cccc(Cc2n[nH]c(=O)c3c2CCCC3)c1` [Example 426, N-methyl-3-((4-oxo-3,4,5,6,7,8-hexahydrophthalazin-1-yl)methyl)-N-(2-pyridin-2-ylethyl)benzamide], the Ki came to 14 nM.

Regarding `COc1ccc(CCN(C)C(=O)c2cccc(Cc3n[nH]c(=O)c4c3CCCC4)c2)cc1OC` [Example 427, N-(2-(3,4-dimethoxyphenyl)ethyl)-N-methyl-3-((4-oxo-3,4,5,6,7,8-hexahydrophthalazin-1-yl)methyl)benzamide], the Ki worked out at 22 nM.

With `O=C(c1cccc(Cc2n[nH]c(=O)c3c2CCCC3)c1)N1CCC(O)CC1` [Example 428, 4-(3-((4-hydroxypiperidin-1-yl)carbonyl)benzyl)-5,6,7,8-tetrahydrophthalazin-1(2H)-one], the Ki worked out at 5 nM. As for `NC(=O)C1CCCN(C(=O)c2cccc(Cc3n[nH]c(=O)c4c3CCCC4)c2)C1` (stereo not drawn) [Example 429, 1-(3-((4-oxo-3,4,5,6,7,8-hexahydrophthalazin-1-yl)methyl)benzoyl)piperidine-3-carboxamide], the figure is 19 nM. As for `NC(=O)C1CCN(C(=O)c2cccc(Cc3n[nH]c(=O)c4c3CCCC4)c2)CC1` [Example 430, 1-(3-((4-oxo-3,4,5,6,7,8-hexahydrophthalazin-1-yl)methyl)benzoyl)piperidine-4-carboxamide], the figure is 5 nM; as for `O=C(c1cccc(Cc2n[nH]c(=O)c3c2CCCC3)c1)N1CCC(n2c(=O)[nH]c3ccccc32)CC1` [Example 434, 4-(3-((4-(2-oxo-2,3-dihydro-1H-benzimidazol-1-yl)piperidin-1-yl)carbonyl)benzyl)-5,6,7,8-tetrahydrophthalazin-1(2H)-one], 6 nM; as for `CN1CCN(C(=O)c2cccc(Cc3n[nH]c(=O)c4c3CCCC4)c2)CC1` [Example 435, 4-(3-((4-methylpiperazin-1-yl)carbonyl)benzyl)-5,6,7,8-tetrahydrophthalazin-1(2H)-one], 20 nM. The figure for `CCN1CCN(C(=O)c2cccc(Cc3n[nH]c(=O)c4c3CCCC4)c2)CC1` [Example 436, 4-(3-((4-ethylpiperazin-1-yl)carbonyl)benzyl)-5,6,7,8-tetrahydrophthalazin-1(2H)-one] is 10 nM; for `O=CN1CCN(C(=O)c2cccc(Cc3n[nH]c(=O)c4c3CCCC4)c2)CC1` [Example 437, 4-(3-((4-oxo-3,4,5,6,7,8-hexahydrophthalazin-1-yl)methyl)benzoyl)piperazine-1-carbaldehyde] it is 4 nM; for `CC(=O)N1CCN(C(=O)c2cccc(Cc3n[nH]c(=O)c4c3CCCC4)c2)CC1` [Example 438, 4-(3-((4-acetylpiperazin-1-yl)carbonyl)benzyl)-5,6,7,8-tetrahydrophthalazin-1(2H)-one] it is 3 nM. With `O=C(c1cccc(Cc2n[nH]c(=O)c3c2CCCC3)c1)N1CCN(CCO)CC1` [Example 439, 4-(3-((4-(2-hydroxyethyl)piperazin-1-yl)carbonyl)benzyl)-5,6,7,8-tetrahydrophthalazin-1(2H)-one], the Ki stood at 8 nM. As for `O=C(c1cccc(Cc2n[nH]c(=O)c3c2CCCC3)c1)N1CCN(c2ccccc2)CC1` [Example 440, 4-(3-((4-phenylpiperazin-1-yl)carbonyl)benzyl)-5,6,7,8-tetrahydrophthalazin-1(2H)-one], the figure is 3 nM. Turning to `O=C(c1cccc(Cc2n[nH]c(=O)c3c2CCCC3)c1)N1CCN(c2ccccn2)CC1` [Example 441, 4-(3-((4-pyridin-2-ylpiperazin-1-yl)carbonyl)benzyl)-5,6,7,8-tetrahydrophthalazin-1(2H)-one], the inhibition constant (Ki) was 3 nM.

In the case of `O=C(c1cccc(Cc2n[nH]c(=O)c3c2CCCC3)c1)N1CCN(c2ncccn2)CC1` [Example 442, 4-(3-((4-pyrimidin-2-ylpiperazin-1-yl)carbonyl)benzyl)-5,6,7,8-tetrahydrophthalazin-1(2H)-one], the Ki stood at 0.8 nM.
